# Experimental data: US6649631B1, “Compositions and methods for treating bone deficit conditions” (The Board of Regents of the University of Texas System, priority 1999, dated 2003)
# Key:
# [1] = system: Swiss white mice; test: In vivo assay of effects of compounds on murine calvarial bone growth; set-up: species or system mouse; settings: as compared to a vehicle control
# Experimental: Male ICR Swiss white mice, aged 4-6 weeks and weighing 13-26 gm, are employed, using 4-5 mice per group. The calvarial bone growth assay is performed as described in PCT application WO 95/24211. Briefly, the test compound or appropriate control vehicle is injected into the subcutaneous tissue over the right calvaria of normal mice. Typically, the control vehicle is the vehicle in which the compound was solubilized, and is PBS containing 5% DMSO or is PBS containing Tween (2 μl/10 ml). The animals are sacrificed on day 14 and bone growth measured by histomorphometry. Bone samples for quantitation are cleaned from adjacent tissues and fixed in 10% buffered formalin for 24-48 hours, decalcified in 14% EDTA for 1-3 weeks, processed through graded alcohols; and embedded in paraffin wax. Three to five μm sections of the calvaria are prepared, and representative sections are selected for histomorphometric assessment of the effects on bone formation and bone resorption. Sections are measured by using a camera lucida attachment to trace directly the microscopic image onto a digitizing plate. Bone changes are measured on sections cut 200 μm apart, over 4 adjacent 1×1 mm fields on both the injected and noninjected sides of the calvaria. […]
# Similar results are obtained when new bone width in microns is measured. […]
# [2] = system: TMC-23 cells; test: Chondrogenic activity: alkaline phosphatase (ALP) activity in TMC-23 cells; format: cell-based, mouse; settings: day 2, 10^−9 M
# Experimental: For measurement of alkaline phosphatase (ALP) activity, the technique of LF Bonewald et al. J. Biol Chem (1992) 267:8943-49, was employed. Briefly, TMC-23 cells were plated in 96 well microtiter plates in DMEM containing 10% FCS at 4×10^3 cells/well. Two days after plating, the cells were confluent and the medium was replaced with fresh medium containing 10% FCS and different concentrations of compounds or recombinant BMP-2. After an additional 2 or 5 days incubation, the plates were washed twice with PBS, and then lysing solution (0.05% Triton X-100) was added (100 μl/well). The cells were lysed by three freeze-thaw cycles of −70° C. (30 min), followed by 37° C. (30 min with shaking). Twenty microliters of cell lysates were assayed with 80 μl of 5 mM p-nitrophenol phosphate in 1.5 M 2-amino-2-methyl-propanol buffer, pH 10.3 (Sigma ALP kit, Sigma Chemical Co., St. Louis, Mo.) for 10 min at 37° C. The reaction was stopped by the addition of 100 μl of 0.5 M NaOH. The spectrophotometric absorbance at 405 nm was compared to that of p-nitrophenol standards to estimate ALP activity in the samples. The protein content of the cell lysates was determined by the Bio-Rad protein assay kit (Bio-Rad, Hercules, Calif.). Specific activity was calculated using these two parameters.
# [3] = system: BMP2 promoter; test: High throughput screening: BMP-2 promoter luciferase reporter in 2T3-BMP-2-LUC cells; format: cell-based, mouse
# Source text: A rapid throughput screening test for compounds capable of stimulating expression of a reporter gene linked to a BMP promoter (a surrogate for the production of bone morphogenetic factors that are endogenously produced) is described in WO96/38590 published Dec. 5, 1996, the contents of which are incorporated herein by reference. This assay is also described as a portion of a study of immortalized murine osteoblasts (derived from a mouse expressing a transgene composed of a BMP2 promoter driving expression of T-antigen) in Ghosh-Choudhery, N. et al. Endocrinology (1996) 137:331-39. In this study, the immortalized cells were stably transfected with a plasmid containing a luciferase reporter gene driven by a mouse BMP2 promoter (−2736/114 bp), and responded in a dose-dependent manner to recombinant human BMP2.
# Briefly, the assay utilizes cells transformed permanently or transiently with constructs in which the promoter of a bone morphogenetic protein, specifically BMP2 or BMP4, is coupled to a reporter gene, typically luciferase. These transformed cells are then evaluated for the production of the reporter gene product; compounds that activate the BMP promoter will drive production of the reporter protein, which can be readily assayed. Over 40,000 compounds have been subjected to this rapid screening technique, and only a very small percentage are able to elicit a level of production of luciferase 5-fold greater than that produced by vehicle. […] The active compounds (“BMP promoter-active compounds” or “active compounds”) are useful in promoting bone or cartilage growth, and thus in the treatment of vertebrates in need of bone or cartilage growth.
# Several tens of thousands of compounds were tested in the assay system set forth in WO 96/38590, published Dec. 5, 1996, and incorporated herein by reference. […]
# The treated cells were incubated for 24 hours at 37° C. and 5% CO2. […] Luminescence was measured on an automated 96-well luminometer, and was expressed as either picograms of luciferase activity per well or as picograms of luciferase activity per microgram of protein. […]
# [4] = system: neonatal mouse calvaria; test: Ex vivo (neonatal mouse) calvarial bone growth assay; format: cell-based
# Experimental: This assay is similar to that described by Gowen M. & Mundy G. J Immunol (1986) 136:2478-82. Briefly, four days after birth, the front and parietal bones of ICR Swiss white mouse pups are removed by microdissection and split along the sagittal suture. The bones are incubated in BGJb medium (Irvine Scientific, Santa Ana, Calif.) plus 0.02% (or lower concentration) β-methylcyclodextrin, wherein the medium also contains test or control substances, at 37° C. in a humidified atmosphere of 5% CO2 and 95% air for 96 hours.
# Following this, the bones are removed from the incubation media and fixed in 10% buffered formalin for 24-48 hours, decalcified in 14% EDTA for 1 week, processed through graded alcohols; and embedded in paraffin wax. Three μm sections of the calvaria are prepared. Representative sections are selected for histomorphometric assessment of bone formation and bone resorption. Bone changes are measured on sections cut 200 μm apart. Osteoblasts and osteoclasts are identified by their distinctive morphology.
# A number of compounds, in particular, those studied in connection with lead compounds classified as hydrazone/hydrazides (H) exemplified by 59-0045, benzothiazoles (T) exemplified by 59-0104, bis-pyridines (P) exemplified by 59-0145, and quinolines/quinoxalines (Q) exemplified by 59-0197, were tested in the ex vivo calvarial assay described hereinabove.
# The scores are assigned to bone formation on the ectocranial periosteal surface. The area immediately surrounding midline suture is excluded from analysis.
# In all samples, toxicity, ectopic new or woven bone formation associated with osteoblasts, and osteoblast size as reflections of relative activity are noted.
# [5] = system: ovariectomized rats; test: Stimulation of bone growth in ovariectomized rats (OVX assay); format: in vivo, rat
# Experimental: Lead compounds also be tested in acute ovariectomized animals (prevention model) using an in vivo dosing assay. Such assays may also include an estrogen-treated group as a control. An exemplary subcutaneous dosing assay is performed as follows:
# In a typical study, 80 three-month-old female Sprague-Dawley rats are weight-matched and divided into eight groups, with ten animals in each group. This includes a baseline control group of animals sacrificed at the initiation of the study; three control groups (sham ovariectomized (sham OVX)+vehicle only; ovariectomized (OVX)+vehicle only; PBS-treated OVX); and a control OVX group that is administered a compound known to promote bone growth. Three dosage levels of the compound to be tested are administered to the remaining three groups of OVX animals.
# Since ovariectomy (OVX) induces hyperphagia, all OVX animals are pair-fed with sham OVX animals throughout the 35 day study. Briefly, test compound, positive control compound, PBS, or vehicle alone is administered subcutaneously once per day for 35 days. Alternatively, test compound can be formulated in implantable pellets that are implanted for 35 days, or may be administered orally, such as by gastric gavage. All animals, including sham OVX/vehicle and OVX/vehicle groups, are injected intraperitoneally with calcein nine days and two days before sacrifice (two injections of calcein administered each designated day, to ensure proper labeling of newly formed bone). Weekly body weights are determined. At the end of the 35-day cycle, the animals' blood and tissues are processed as described above.
# Lead compounds may also be tested in chronic OVX animals (treatment model). An exemplary protocol for treatment of established bone loss in ovariectomized animals that can be used to assess efficacy of anabolic agents may be performed as follows. Briefly, 80 to 100 six month old female, Sprague-Dawley rats are subjected to sham surgery (sham OVX) or ovariectomy (OVX) at time 0, and 10 rats are sacrificed to serve as baseline controls. Body weights are recorded weekly during the experiment. After approximately 6 weeks of bone depletion (42 days), 10 sham OVX and 10 OVX rats are randomly selected for sacrifice as depletion period controls. Of the remaining animals, 10 sham OVX and 10 OVX rats are used as placebo-treated controls. The remaining OVX animals are treated with 3 to 5 doses of test drug for a period of 5 weeks (35 days). As a postitive control, a group of OVX rats can be treated with an agent such as PTH, a known anabolic agent in this model (Kimmel et al. Endocrinology (1993) 132:1577-84). To determine effects on bone formation, the following procedure can be followed. The femurs, tibiae and lumbar vertebrae 1 to 4 are excised and collected. The proximal left and right tibiae are used for pqCT measurements, cancellous bone mineral density (BMD) (gravimetric determination), and histology, while the midshaft of each tibiae is subjected to cortical BMD or histology. The femurs are prepared for pqCT scanning of the midshaft prior to biomechanical testing. With respect to lumbar vertebrae (LV), LV2 are processed for BMD (pqCT may also be performed); LV3 are prepared for undecalcified bone histology; and LV4 are processed for mechanical testing.
# The compound 59-0145 was tested at various concentrations in the OVX assay conducted as described above. The increase in bone volume was measured by two different groups; one group found 5 μg/kg/day of 59-0145 gave 21% increase over control whereas the second group found a 71% increase. At 50 μg/kg/day, the first group found a 31% increase, and the second a 54% increase.
# In another experiment, 3 month old Sprague Dawley rats were ovariectomized and depleted for six weeks. At the end of the six weeks, treatment was started with subcutaneous administration of compound 59-0145. The treatment continued for 10 weeks. […]
smiles,measurement,setting,value
"c1ccc(N=NC2=NNc3ccccc3S2)cc1 [Compound 59-0008, 3-phenylazo-1H-4,1,2-benzothiadiazine]",increase in width of new calvarial bone,[1],4 fold
same,increase of ALP levels compared to the vehicle control,[2],approximately 3 fold
same,response at maximal activity,[3]; at about 3 μM,approximately 175 light emission units
CN(C)c1ccc(C=Cc2cnc3ccccc3n2)cc1 [Compound 59-0019],"activity in the ex vivo calvarial assay, in words",[4],at least some indication of activity
FC(F)(F)c1ccc(NCCNc2ccc(C(F)(F)F)cn2)nc1 [Compound 59-0145],"activity in the ex vivo calvarial assay, in words",[4],consistent moderate activity
same,increase in bone volume over control,"[5]; 5 μg/kg/day, first group of measurers",21%
same,increase in bone volume over control,"[5]; 5 μg/kg/day, second group of measurers",71%
same,increase in bone volume over control,"[5]; 50 μg/kg/day, first group of measurers",31%
same,increase in bone volume over control,"[5]; 50 μg/kg/day, second group of measurers",54%
same,effect on lumbar vertebrae,"[5]; 5 and 50 μg/kg/day, FIG. 10",beneficial effect
same,increase in trabecular bone (proximal tibia) compared to placebo-treated group,"[5]; chronic OVX rats, depleted 6 weeks, subcutaneous, 10 weeks of treatment, 50-500 μg/kg/day",significant increase
COc1cc(N(C)C)ccc1C=Cc1ccc2ccccc2n1 [Compound 59-0150],"activity in the ex vivo calvarial assay, in words",[4],activity when measured by one group but not the other
CC(CNc1ccc(C(F)(F)F)cn1)Nc1ccc(C(F)(F)F)cn1 (centres unmarked) [Compound 59-0459],performance in the screening assay relative to 59-0008,[3],better than 59-0008
N#Cc1ccc(NCCNc2ccc(C(F)(F)F)cn2)nc1 [Compound 59-0483],performance in the screening assay relative to 59-0008,[3],better than 59-0008
